Here are results for 28 compounds from patent US20070232615A1, “Chemical Compounds” (priority 2004, published 2007).

This assay has as its system HIV. The assay is described as follows: HOS HIV infectivity assay (Table 2, strain not given). The class given is cell-based. To be noted: Human immunodeficiency virus 1, read-out: Activity Level. The method, then:
HOS HIV-1 Infectivity Assay
Compounds were profiled against two HIV-1 viruses, the M-tropic (CCR5 utilizing) Ba-L strain and the T-tropic (CXCR4 utilizing) IIIB strain. Both viruses were propagated in human peripheral blood lymphocytes. Compounds were tested for there ability to block infection of the HOS cell line (expressing hCXCR4/hCCR5/hCD4/pHIV-LTR-luciferase) by either HIV-1 Ba-L or HIV-1 IIIB. Compound cytotoxicity was also examined in the absence of virus addition.
HOS HIV-1 Infectivity Assay Format
HOS cells (expressing hCXCR4/hCCR5/hCD4/pHIV-LTR-luciferase) were harvested and diluted in Dulbeccos modified Eagles media supplemented with 2% FCS and non-essential amino acid to a concentration of 60,000 cells/ml. The cells were plated into 96-well plates (100 ul per well) and the plates were placed in a tissue culture incubator (37° C.; 5% CO2/95% air) for a period of 24 h.
Subsequently, 50 ul of the desired drug solution (4 times the final concentration) was added to each well and the plates were returned to the tissue culture incubator (37° C.; 5% CO2/95% air) for 1 h. Following this incubation 50 ul of diluted virus was added to each well (approximately 2 million RLU per well of virus). The plates were returned to the tissue culture incubator (37° C.; 5% CO2/95% air) and were incubated for a further 96 h.
Following this incubation the endpoint for the virally infected cultures was quantified following addition of Steady-Glo Luciferase assay system reagent (Promega, Madison, Wis.). Cell viability or non-infected cultures was measured using a CellTiter-Glo luminescent cell viability assay system (Promega, Madison, Wis.). All luminescent readouts are performed on a Topcount luminescence detector (Packard, Meridien, Conn.).

SMILES strings stand for the structures. Where only a bound is given, the exact number is not on record here.

On to `CC(C)CN(Cc1cn2c(N3CCN(C)CC3)cccc2n1)[C@H]1CCCc2cccnc21` [Example 53, (8S)—N-{[5-(4-Methyl-1-piperazinyl)imidazo[1,2-a]pyridin-2-yl]methyl}-N-(2-methylpropyl)-5,6,7,8-tetrahydro-8-quinolinamine], for which the IC50 was under 100 nM.
In the case of `CCN(CC)[C@@H]1CCN(c2cccc3nc(CN(C)[C@H]4CCCc5cccnc54)cn23)C1` [Example 93, (8S)—N-({5-[(3R)-3-(Diethylamino)-1-pyrrolidinyl]imidazo[1,2-a]pyridin-2-yl}methyl)-N-methyl-5,6,7,8-tetrahydro-8-quinolinamine] it was under 100 nM; in that of `CN(Cc1cn2c(NCCN3CCCCC3)cccc2n1)[C@H]1CCCc2cccnc21` [Example 103, (8S)—N-Methyl-N-[(5-{[2-(1-piperidinyl)ethyl]amino}imidazo[1,2-a]pyridin-2-yl)methyl]-5,6,7,8-tetrahydro-8-quinolinamine], under 100 nM.
Regarding `CN(C)C1CN(c2cccc3nc(CN(C)C4CCCc5cccnc54)cn23)C1` (stereo not shown) [Example 26, N-({5-[3-(Dimethylamino)-1-azetidinyl]imidazo[1,2-a]pyridin-2-yl}methyl)-N-methyl-5,6,7,8-tetrahydro-8-quinolinamine], the IC50 lay within 100 to 500 nM.
As for `CN(Cc1cn2c(N3CCOCC3)cccc2n1)C1CCCc2cccnc21` (stereo not shown) [Example 20, N-Methyl-N-{[5-(4-morpholinyl)imidazo[1,2-a]pyridin-2-yl]methyl}-5,6,7,8-tetrahydro-8-quinolinamine], the IC50 was 500 to 10000 nM.
Turning to `CC(C)N1CCN(c2cccc3nc(CN(C)[C@H]4CCCc5cccnc54)cn23)CC1` [Example 89, (8S)—N-Methyl-N-({5-[4-(1-methylethyl)-1-piperazinyl]imidazo[1,2-a]pyridin-2-yl}methyl)-5,6,7,8-tetrahydro-8-quinolinamine], the IC50 is under 100 nM.
In the case of `CN(Cc1cn2c(-c3cccnc3)cccc2n1)C1CCCc2cccnc21` (stereo not shown) [Example 40, N-Methyl-N-{[5-(3-pyridinyl)imidazo[1,2-a]pyridin-2-yl]methyl}-5,6,7,8-tetrahydro-8-quinolinamine] it was 500 to 10000 nM; in that of `CC(C)N(Cc1cn2c(N3CC[C@@H](N(C)C)C3)cccc2n1)[C@H]1CCCc2cccnc21` [Example 98, (8S)—N-({5-[(3R)-3-(Dimethylamino)-1-pyrrolidinyl]imidazo[1,2-a]pyridin-2-yl}methyl)-N-(1-methylethyl)-5,6,7,8-tetrahydro-8-quinolinamine], under 100 nM.
As for `COc1ccc(CN(Cc2cn3c(N4CCN(C)CC4)cccc3n2)[C@H]2CCCc3cccnc32)cc1` [Example 74, (8S)—N-{[4-(Methyloxy)phenyl]methyl}-N-{[5-(4-methyl-1-piperazinyl)imidazo[1,2-a]pyridin-2-yl]methyl}-5,6,7,8-tetrahydro-8-quinolinamine], the IC50 is under 100 nM.
With `CN(Cc1cn2c(NCCN3CCCC3)cccc2n1)[C@H]1CCCc2cccnc21` [Example 102, (8S)—N-Methyl-N-[(5-{[2-(1-pyrrolidinyl)ethyl]amino}imidazo[1,2-a]pyridin-2-yl)methyl]-5,6,7,8-tetrahydro-8-quinolinamine], the IC50 was under 100 nM.
In the case of `CN(Cc1cn2c(N3CC(N)C3)cccc2n1)C1CCCc2cccnc21` (stereo not shown) [Example 25, N-{[5-(3-Amino-1-azetidinyl)imidazo[1,2-a]pyridin-2-yl]methyl}-N-methyl-5,6,7,8-tetrahydro-8-quinolinamine] it was under 100 nM; in that of `CN1CCN(c2cccc3nc(CN(C)[C@H]4CCCc5cccnc54)cn23)CC1` [Example 50, (8S)—N-Methyl-N-{[5-(4-methyl-1-piperazinyl)imidazo[1,2-a]pyridin-2-yl]methyl}-5,6,7,8-tetrahydro-8-quinolinamine], under 100 nM.
With `CC(c1cn2c(N3CCN(C)CC3)cccc2n1)N(C)[C@H]1CCCc2cccnc21` (stereo partly drawn) [Example 100, (8S)—N-Methyl-N-{1-[5-(4-methyl-1-piperazinyl)imidazo[1,2-a]pyridin-2-yl]ethyl}-5,6,7,8-tetrahydro-8-quinolinamine], the IC50 is under 100 nM.
Turning to `CN1CCN(c2cccc3nc(CN(CCCO)[C@H]4CCCc5cccnc54)cn23)CC1` [Example 79, 3-{{[5-(4-Methyl-1-piperazinyl)imidazo[1,2-a]pyridin-2-yl]methyl}[(8S)-5,6,7,8-tetrahydro-8-quinolinyl]amino}-1-propanol], the IC50 was under 100 nM.
Turning to `CN(Cc1cn2c(N3CCC(N)CC3)cccc2n1)[C@H]1CCCc2cccnc21` [Example 80, (8S)—N-{[5-(4-Amino-1-piperidinyl)imidazo[1,2-a]pyridin-2-yl]methyl}-N-methyl-5,6,7,8-tetrahydro-8-quinolinamine], the IC50 is under 100 nM.
On to `CN1CCN(c2cccc3nc(CN(C)C4CCCCc5cccnc54)cn23)CC1` (stereo not shown) [Example 47, N-Methyl-N-{[5-(4-methyl-1-piperazinyl)imidazo[1,2-a]pyridin-2-yl]methyl}-6,7,8,9-tetrahydro-5H-cyclohepta[b]pyridin-9-amine], for which the IC50 is under 100 nM.
On to `CN1CCC(N(C)c2cccc3nc(CN(C)[C@H]4CCCc5cccnc54)cn23)C1` (stereo partly drawn) [Example 86, (8S)—N-Methyl-N-({5-[methyl(1-methyl-3-pyrrolidinyl)amino]imidazo[1,2-a]pyridin-2-yl}methyl)-5,6,7,8-tetrahydro-8-quinolinamine], for which the IC50 is under 100 nM.
`CN1CCN(c2cccc3nc(CN(C)[C@@H]4CCCc5cccnc54)cn23)CC1` [Example 52, (8R)—N-Methyl-N-{[5-(4-methyl-1-piperazinyl)imidazo[1,2-a]pyridin-2-yl]methyl}-5,6,7,8-tetrahydro-8-quinolinamine]: the IC50 is under 100 nM.
On to `CN1CCN(c2cccc3nc(CN(Cc4ccc(C(F)(F)F)cc4)[C@H]4CCCc5cccnc54)cn23)CC1` [Example 71, (8S)—N-{[5-(4-Methyl-1-piperazinyl)imidazo[1,2-a]pyridin-2-yl]methyl}-N-{[4-(trifluoromethyl)phenyl]methyl}-5,6,7,8-tetrahydro-8-quinolinamine], for which the IC50 was under 100 nM.
In the case of `CN(C)[C@@H]1CCN(c2cccc3nc(CN(CC4CC4)[C@H]4CCCc5cccnc54)cn23)C1` [Example 99, (8S)—N-(Cyclopropylmethyl)-N-({5-[(3R)-3-(dimethylamino)-1-pyrrolidinyl]imidazo[1,2-a]pyridin-2-yl}methyl)-5,6,7,8-tetrahydro-8-quinolinamine] it was under 100 nM; in that of `CN1CCN(c2cccc3nc(CNC4CCCc5cccnc54)cn23)CC1` (stereo not shown) [Example 39, N-{[5-(4-Methyl-1-piperazinyl)imidazo[1,2-a]pyridin-2-yl]methyl}-5,6,7,8-tetrahydro-8-quinolinamine], under 100 nM; in that of `CN(Cc1cn2c(OCCN3CCCC3)cccc2n1)[C@H]1CCCc2cccnc21` [Example 105, (8S)—N-Methyl-N-[(5-{[2-(1-pyrrolidinyl)ethyl]oxy}imidazo[1,2-a]pyridin-2-yl)methyl]-5,6,7,8-tetrahydro-8-quinolinamine], under 100 nM.
In the case of `CN1CCN(c2cccc3nc(CN(Cc4cccc(Br)c4)[C@H]4CCCc5cccnc54)cn23)CC1` [Example 64, (8S)—N-[(3-Bromophenyl)methyl]-N-{[5-(4-methyl-1-piperazinyl)imidazo[1,2-a]pyridin-2-yl]methyl}-5,6,7,8-tetrahydro-8-quinolinamine], the IC50 was under 100 nM.
Under `CC(C)c1ccc(CN(Cc2cn3c(N4CCN(C)CC4)cccc3n2)[C@H]2CCCc3cccnc32)cc1` [Example 75, (8S)—N-{[4-(1-Methylethyl)phenyl]methyl}-N-{[5-(4-methyl-1-piperazinyl)imidazo[1,2-a]pyridin-2-yl]methyl}-5,6,7,8-tetrahydro-8-quinolinamine] stands under 100 nM; under `CN1CCN(c2cccc3nc(CN(Cc4ccc(Br)cc4)[C@H]4CCCc5cccnc54)cn23)CC1` [Example 65, (8S)—N-[(4-Bromophenyl)methyl]-N-{[5-(4-methyl-1-piperazinyl)imidazo[1,2-a]pyridin-2-yl]methyl}-5,6,7,8-tetrahydro-8-quinolinamine], under 100 nM; under `CN(Cc1cn2c(NC(=O)c3ccncc3)cccc2n1)C1CCCc2cccnc21` (stereo not shown) [Example 45, N-(2-{[Methyl(5,6,7,8-tetrahydro-8-quinolinyl)amino]methyl}imidazo[1,2-a]pyridin-5-yl)-4-pyridinecarboxamide], 500 to 10000 nM.
As for `COc1ccccc1CN(Cc1cn2c(N3CCN(C)CC3)cccc2n1)[C@H]1CCCc2cccnc21` [Example 72, (8S)—N-{[2-(Methyloxy)phenyl]methyl}-N-{[5-(4-methyl-1-piperazinyl)imidazo[1,2-a]pyridin-2-yl]methyl}-5,6,7,8-tetrahydro-8-quinolinamine], the IC50 is under 100 nM.
As for `COc1ccc([C@H](C)N(Cc2cn3c(N4CC[C@@H](N(C)C)C4)cccc3n2)[C@H]2CCCc3cccnc32)cc1` [Example 95, (8S)—N-({5-[(3R)-3-(Dimethylamino)-1-pyrrolidinyl]imidazo[1,2-a]pyridin-2-yl}methyl)-N-{(1S)-1-[4-(methyloxy)phenyl]ethyl}-5,6,7,8-tetrahydro-8-quinolinamine], the IC50 was in the range of 100 to 500 nM.
